In patent publication US20230234941A1, “Salts of Compound and Pharmaceutical Compositions Containing the Same” (Shenzhen Forward Pharmaceuticals Co., Limited., priority 2020, published 2023):
Values after ≈ are worked out from the molar mass of the structure shown. Like-named read-outs stand apart in the source and are kept apart here.

How the values were obtained:
Type in all cases: physicochemical
[1] = Solid storage stability test; settings: for Original morphology / Original purity: original solid before storage; for chemical and physical stability after storage (summary): solid/25° C./60% RH/open/1 week and/or solid/60° C./closed container/1 week
Experimental: Each amorphous salt solid was weighed (two 2 mg samples were weighed for purity testing after solid storage stability study, and one 10 mg sample was weighed for XRPD testing after solid storage stability study) and placed in a glass vial. In a 25° C./60% RH solid storage stability test, the amorphous salt solid was placed in a 25° C./60% RH constant temperature and humidity chamber, and placed in the dark for 1 week (i.e. “solid/25° C./60% RH/open/1 week”), and in a 60° C. solid storage stability test, the amorphous salt solid was sealed in an oven at 60° C. and heated for 1 week in the dark (i.e. “solid/60° C./closed container/l week”). Then the sample was taken out for purity testing, crystal form detection and appearance observation, respectively.

[2] = Chemical and physical stability of the salts at the end of the preparation
From the text: It is crucial for drug development whether the salts obtained as above have chemical and physical stability at the end of the preparation. The chemical and physical stability of the salts at the end of the preparation includes: […]

[3] = Solid solubility test (2 h and 24 h); settings: for XRPD measured at 2 h: state of sample / solid fraction; for solubility at 2 h: 37 °C, thermodynamic from solid
Experimental: samples were weighed for each amorphous salt solid (equivalent to 20 mg of free base), and 10 mL of the following solvents were respectively added: 0.1N HCl solution (pH 1.0), 50 mM phosphate buffer (pH 4.5), FeSSIF-V1 (pH 5.0), FaSSIF-V1 (pH 6.5) and SGF (pH 2.0), […] The suspension was then centrifuged at 37° C., the supernatant was measured for solubility by HPLC, and the solid fraction was measured for XRPD. The target solubility was at least 2 mg (based on free base)/mL.

[4] = Test BS1: solid/25° C./60% RH/open/1 week
[5] = listed as amorphous 2 eq. mesylate salt
[6] = solid/60° C./closed container/1 week (Test BS1)
[7] = FaSSIF-V1 (pH 6.5) (Test ES4, partly printed ES1)
[8] = FaSSIF-V1 (pH 6.5) (Test ES4, partly printed ES1), 37° C., based on free base
[9] = Test ES1: 0.1N HCl solution (pH 1.0)
[10] = Test ES1: 0.1N HCl solution (pH 1.0), 37° C., based on free base
[11] = Test ES2: 50 mM phosphate buffer (pH 4.5)
[12] = Test ES2: 50 mM phosphate buffer (pH 4.5), 37° C., based on free base
[13] = Test ES3: FeSSIF-V1 (pH 5.0), 37° C., based on free base
[14] = Test ES5: SGF (pH 2.0), 37° C., based on free base
[15] = listed as amorphous 1 eq. besylate salt
[16] = listed as amorphous 2 eq. besylate salt
[17] = listed as amorphous 1 eq. esylate salt

SMILES	Purity [1, 4] [%]	Original morphology [1]	Original purity [1] [%]	Purity [1, 6] [%]	pH measured at 2 h [3, 7]	Solubility measured at 2 h [3, 8] [µg/mL]	XRPD measured at 2 h [3, 7]	pH measured at 2 h [3, 9]	Solubility measured at 2 h [3, 10] [µg/mL]	XRPD measured at 2 h [3, 9]	pH measured at 2 h [3, 11]	Solubility measured at 2 h [3, 12] [µg/mL]	XRPD measured at 2 h [3, 11]	pH measured at 2 h ([3]; Test ES3: FeSSIF-V1 (pH 5.0))	Solubility measured at 2 h [3, 13] [µg/mL]	XRPD measured at 2 h ([3]; Test ES3: FeSSIF-V1 (pH 5.0))	pH measured at 2 h ([3]; Test ES5: SGF (pH 2.0))	Solubility measured at 2 h [3, 14] [µg/mL]	XRPD measured at 2 h ([3]; Test ES5: SGF (pH 2.0))	further results
C=CC(=O)Nc1cc(Nc2ncnc(-c3cn(C)c4ccccc34)n2)c(OC)cc1N(C)CCN(C)C [Example 5]	99.9	amorphous	99.9	99.8	(6.2)	>2000	clear solution	(0.7)	>2000	clear solution	(4.2)	>2000	clear solution	(4.8)	>2000	clear solution	(1.8)	>2000	clear solution	chemical and physical stability after storage (summary) ([1]; listed as 2 eq. mesylate salt): physically unstable; chemical and physical stability after storage (summary) [1, 5]: physically unstable; physical and chemical stability under storage (in words) ([1]; solid/25° C./60% RH/open/1 week, listed as amorphous 2 eq. mesylate salt): transformed from amorphous to a low crystallinity and showed a certain hygroscopicity (agglomeration); physical and chemical stability under storage (in words) ([1]; solid/60° C./closed container/1 week, listed as amorphous 2 eq. mesylate salt): a certain hygroscopicity (partial agglomeration); chemical and physical stability at the end of the preparation ([2]; listed as 2 eq. mesylate salt): chemically and physically stable; chemical and physical stability at the end of the preparation [2, 5]: chemically and physically stable
C=CC(=O)Nc1cc(Nc2ncnc(-c3cn(C)c4ccccc34)n2)c(OC)cc1N(C)CCN(C)C [Example 6]	98.2	amorphous	99.7	99.6	(6.5)	>2000	clear solution	(0.7)	>2000	clear solution	(4.5)	>2000	clear solution	(4.8)	>2000	clear solution	(2.1)	>2000	clear solution	decrease in purity ([1]; solid/25° C./60% RH/open/1 week): about 2%; chemical and physical stability after storage (summary) ([1]; listed as 1 eq. besylate salt): chemically unstable; chemical and physical stability after storage (summary) [1, 15]: chemically unstable; physical and chemical stability under storage (in words) ([1]; solid/60° C./closed container/1 week, listed as amorphous 1 eq. besylate salt): good physical and chemical stability; chemical and physical stability at the end of the preparation ([2]; listed as 1 eq. besylate salt): chemically and physically stable; chemical and physical stability at the end of the preparation [2, 15]: chemically and physically stable
C=CC(=O)Nc1cc(Nc2ncnc(-c3cn(C)c4ccccc34)n2)c(OC)cc1N(C)CCN(C)C [Example 7]	99.6	amorphous	99.6	99.4	(6.1)	>2000	clear solution	(0.8)	1800 (≈ 3.6 mM)	–	(4.2)	>2000	clear solution	L(4.8)	>2000	clear solution	(1.7)	>2000	clear solution	chemical and physical stability after storage (summary) ([1]; listed as 2 eq. besylate salt): physically unstable; chemical and physical stability after storage (summary) [1, 16]: physically unstable; physical and chemical stability under storage (in words) ([1]; solid/25° C./60% RH/open/1 week, listed as amorphous 2 eq. besylate salt): slight color change and showed significant hygroscopicity (caking and fusion to a glassy state); physical and chemical stability under storage (in words) ([1]; solid/60° C./closed container/1 week, listed as amorphous 2 eq. besylate salt): good physical and chemical stability; chemical and physical stability at the end of the preparation ([2]; listed as 2 eq. besylate salt): chemically and physically stable; chemical and physical stability at the end of the preparation [2, 16]: chemically and physically stable; solubility at 2 h ([3]; 0.1N HCl solution, pH 1, simulated gastric fluid, Test ES1: 0.1N HCl solution (pH 1.0), 37° C., based on free base, read-out: Solubility measured at 2 h): < 2000 µg/mL; solubility at 2 h ([3]; not achieved in some solvents / greater in various solvents, read-out: solubility in solvents that mimic physiological conditions): < 2000 µg/mL
C=CC(=O)Nc1cc(Nc2ncnc(-c3cn(C)c4ccccc34)n2)c(OC)cc1N(C)CCN(C)C [Example 8]	99.9	amorphous	99.8	99.8	(6.4)	>2000	clear solution	(0.8)	>2000	clear solution	(4.4)	>2000	clear solution	(4.8)	>2000	clear solution	(1.9)	>2000	clear solution	chemical and physical stability after storage (summary) ([1]; listed as 1 eq. esylate salt): physically unstable; chemical and physical stability after storage (summary) [1, 17]: physically unstable; physical and chemical stability under storage (in words) ([1]; solid/25° C./60% RH/open/1 week, listed as amorphous 1 eq. esylate salt): significant hygroscopicity (caking and fusion to a glassy state); physical and chemical stability under storage (in words) ([1]; solid/60° C./closed container/1 week, listed as amorphous 1 eq. esylate salt): good physical and chemical stability; chemical and physical stability at the end of the preparation ([2]; listed as 1 eq. esylate salt): chemically and physically stable; chemical and physical stability at the end of the preparation [2, 17]: chemically and physically stable
